The values below come from US8017791B2, “Tri-substituted 2-benzhydryl-5-benzylamino-tetrahydro-pyran-4-ol and 6-benzhydryl-4-benzylamino-tetrahydro-pyran-3-ol analogues, and novel, 3,6-disubstituted pyran derivatives” (Wayne State University, priority 2003, dated 2011).

Data set [1] concerns the target T1, DAT (Rattus norvegicus, UniProt P23977).
T1 construct: rat striatum was the source for DAT, and cerebral cortex for SERT and NET; from tissue; P2 synaptosomal fraction for uptake
Description: Inhibition of [3H]WIN 35,428 binding to DAT. On the procedure: (§1) Biology. […] Briefly, rat striatum was the source for DAT, and cerebral cortex for SERT and NET. […] Test compounds were dissolved in dimethyl sulfoxide (DMSO) and diluted out in 10% (v/v) DMSO. […] At least five triplicate concentrations of each test compound were studied, spaced evenly around the IC50 value. For DAT uptake assays, uptake of 50 nM [^3H]DA into rat striatal synaptosomes was measured exactly as described by us previously. Briefly, rat striatal P2 membrane fractions were incubated with test compounds for 8 min followed by the additional presence of [^3H]DA for 4 min at 25?. […] Construction of inhibition curves and dissolvement of test compounds were as described above.

For data set [2], the target named is T1, DAT. The experiment in a line: Inhibition of [3H]DA uptake by DAT into rat striatal synaptosomes. Type of data set: biochemical. Particulars: for IC50: read-out: DAT uptake, IC50 [3H]DA; for [3H]DA uptake/DAT binding: Table 3, ratio of IC50 values. On the procedure: as §1

Molecules are shown by their SMILES. Where a name gives a salt, the structure may show the parent alone.

T1 sequence (P23977 whole entry): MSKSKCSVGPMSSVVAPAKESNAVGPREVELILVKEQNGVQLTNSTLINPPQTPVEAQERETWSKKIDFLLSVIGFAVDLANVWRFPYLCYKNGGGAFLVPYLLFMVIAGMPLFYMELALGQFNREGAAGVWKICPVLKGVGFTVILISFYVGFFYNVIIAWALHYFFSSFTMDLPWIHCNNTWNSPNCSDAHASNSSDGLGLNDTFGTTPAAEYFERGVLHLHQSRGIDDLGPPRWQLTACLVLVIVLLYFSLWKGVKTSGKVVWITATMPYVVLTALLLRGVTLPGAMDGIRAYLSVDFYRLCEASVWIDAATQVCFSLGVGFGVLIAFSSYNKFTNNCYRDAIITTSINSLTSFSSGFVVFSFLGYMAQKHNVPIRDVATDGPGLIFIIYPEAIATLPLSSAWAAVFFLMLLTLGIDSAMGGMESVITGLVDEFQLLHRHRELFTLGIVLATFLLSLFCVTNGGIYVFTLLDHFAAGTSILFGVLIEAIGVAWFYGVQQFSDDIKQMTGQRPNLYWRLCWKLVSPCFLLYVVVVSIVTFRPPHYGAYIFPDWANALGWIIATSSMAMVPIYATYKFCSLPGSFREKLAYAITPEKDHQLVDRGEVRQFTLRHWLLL

The term melting point denotes the temperature of the solid-liquid transition. In the case of `N#Cc1ccc(CN[C@H]2CC[C@@H](C(c3ccccc3)c3ccccc3)OC2)cc1` (relative stereo) (as salt: oxalate) [Compound 16c, Cis-(6-benzhydryl-tetrahydropyran-3-yl)-(4-cyano-benzyl)-amine], the melting point lay in the range of 241 to 242 °C.
The molecule `Oc1ccc(CN[C@H]2CC[C@@H](C(c3ccccc3)c3ccccc3)OC2)cc1` (as salt: oxalate) [(−)-37a, cis-(3S,6S)-(6-benzhydryl-tetrahydropyran-3-yl)-(4-hydroxy-benzyl)-amine] showed a melting point of 136 to 138 °C.
Same read-out and setting: to `Clc1ccc(CN[C@H]2CC[C@@H](C(c3ccccc3)c3ccccc3)OC2)cc1Cl` (relative stereo) (as salt: oxalate) [Compound 16i, Cis-(6-benzhydryl-tetrahydropyran-3-yl)-(3,4-dichloro-benzyl)-amine] belongs 251 to 252 °C.
For orientation: IC50 means the concentration at which inhibition is half-maximal. Take `O[C@H]1C[C@H](C(c2ccccc2)c2ccccc2)OC[C@@H]1NCc1ccc2[nH]ccc2c1` [(+)-32b, (2R,4S,5S)-2-benzhydryl-5-[(1H-indol-5-ylmethyl)-amino]-tetrahydropyran-4-ol]: the IC50 on DAT [1] (Table 4, rat brain, read-out: DAT binding, IC50, [3H]Win 35,428) was 494 ± 96 nM; at DAT [2] (Table 4, rat brain), 247 ± 21 nM.
For `Brc1ccc(CN[C@H]2CC[C@@H](C(c3ccccc3)c3ccccc3)OC2)cc1` (relative stereo) (as salt: oxalate) [Compound 16l, Cis-(6-benzhydryl-tetrahydropyran-3-yl)-(4-bromo-benzyl)-amine], the melting point was 250 to 252 °C.
Still for that read-out and setting: under `COc1ccc(CN[C@H]2CC[C@@H](C(c3ccccc3)c3ccccc3)OC2)cc1` (relative stereo) (as salt: oxalate) [Compound 16e, Cis-(6-benzhydryl-tetrahydropyran-3-yl)-(4-methoxy-benzyl)-amine] stands 215 to 217 °C.
The same measure, in the same setting: to `Oc1ccc(CN[C@@H]2CC[C@H](C(c3ccccc3)c3ccccc3)OC2)cc1` (as salt: oxalate) [(+)-37a, cis-(3R,6R)-(6-benzhydryl-tetrahydropyran-3-yl)-(4-hydroxy-benzyl)-amine] belongs 136 to 138 °C.
Same read-out and setting: to `COc1ccc(CN[C@@H]2C[C@@H](C(c3ccccc3)c3ccccc3)OC[C@@H]2O)cc1` (as salt: oxalate) [(−)-29g, (3R,4R,6S)-6-benzhydryl-4-(4-methoxy-benzylamino)-tetrahydro-pyran-3-ol] belongs 234 to 235 °C; to `Fc1ccc(CN[C@@H]2CCO[C@@H](C(c3ccccc3)c3ccccc3)C2)cc1` (relative stereo) (as salt: oxalate) [Compound 7b, trans-(2-benzhydryl-tetrahydropyran-4-yl)-(4-fluoro-benzyl)-amine], 185 to 187 °C; to `O[C@H]1C[C@H](C(c2ccccc2)c2ccccc2)OC[C@@H]1NCc1ccccc1` (as salt: oxalate) [(+)-29d, (2R,4S,5S)-2-benzhydryl-5-benzylamino-tetrahydro-pyran-4-ol], 249 to 251 °C.
Molecule `c1ccc(C(c2ccccc2)C2CCC(NCc3cc4ccccc4[nH]3)CO2)cc1` (stereo not drawn) (as salt: oxalate) [Compound 16g, Cis-(6-benzhydryl-tetrahydropyran-3-yl)-(2-indole-methyl)-amine] displayed a melting point of 215 to 216 °C.
Molecule `c1ccc(C(c2ccccc2)C2CCC(NCc3c[nH]c4ccccc34)CO2)cc1` (stereo not drawn) (as salt: oxalate) [Compound 16f, Cis-(6-benzhydryl-tetrahydropyran-3-yl)-(3-indole-methyl)-amine] had a melting point of 177 to 179 °C.
Still for that read-out and setting: to `O=[N+]([O-])c1ccc(CN[C@H]2CC[C@@H](C(c3ccccc3)c3ccccc3)OC2)cc1` (relative stereo) (as salt: oxalate) [Compound 16d, Cis-(6-benzhydryl-tetrahydropyran-3-yl)-(4-nitro-benzyl)-amine] belongs 236 to 238 °C; to `O[C@@H]1C[C@@H](C(c2ccccc2)c2ccccc2)OC[C@H]1NCc1ccc(F)cc1` (as salt: oxalate) [(−)-29b, (2S,4R,5R)-2-benzhydryl-5-(4-fluoro-benzylamino)-tetrahydro-pyran-4-ol], 222 to 223 °C.
With `N[C@H]1CC[C@@H](C(c2ccccc2)c2ccccc2)OC1` (relative stereo) (as salt: HCl) [Compound 15, Cis-(6-benzhydryl-tetrahydropyran-3-yl)-amine], the melting point is 260 to 261 °C.
Regarding `Fc1ccc(CN[C@H]2CC[C@@H](C(c3ccccc3)c3ccccc3)OC2)cc1` (relative stereo) (as salt: oxalate) [Compound 16b, Cis-(6-benzhydryl-tetrahydropyran-3-yl)-(4-fluoro-benzyl)-amine], the melting point is 229 to 230 °C.
Turning to `COc1ccc(CN[C@@H]2CO[C@H](C(c3ccccc3)c3ccccc3)C[C@H]2O)c(OC)c1` (as salt: oxalate) [(−)-29e, (2S,4R,5R)-2-benzhydryl-5-(2,4-dimethoxy-benzylamino)-tetrahydropyran-4-ol], the melting point fell in the range of 208 to 210 °C.
Regarding `Fc1ccc(CN[C@H]2CCO[C@@H](C(c3ccccc3)c3ccccc3)C2)cc1` (relative stereo) (as salt: oxalate) [Compound 7a, cis-(2-benzhydryl-tetrahydropyran 4-yl)-(4-fluorobenzyl)-amine], the melting point was in the range of 177 to 181 °C.
As for `Fc1ccc(CCN[C@H]2CC[C@@H](C(c3ccccc3)c3ccccc3)OC2)cc1` (relative stereo) (as salt: oxalate) [Compound 16p, Cis-(6-benzhydryl-tetrahydropyran-3-yl)-[2-(4-fluoro-phenyl)-ethyl]-amine], the melting point fell in the range of 240 to 242 °C.
Same read-out and setting: under `COc1ccc(CN[C@@H]2CO[C@H](C(c3ccccc3)c3ccccc3)C[C@H]2O)cc1` (as salt: oxalate) [(−)-29a, (2S,4R,5R)-2-benzhydryl-5-(4-methoxy-benzylamino)-tetrahydropyran-4-ol] stands 230 to 232 °C.
The same measure, in the same setting: to `O[C@H]1C[C@H](C(c2ccccc2)c2ccccc2)OC[C@@H]1NCCc1ccc(F)cc1` (as salt: oxalate) [(+)-29c, (2R,4S,5S)-2-benzhydryl-5-[2-(4-fluoro-phenyl)-ethylamino]-tetrahydropyran-4-ol] belongs 203 to 205 °C.
For `O[C@H]1C[C@H](C(c2ccccc2)c2ccccc2)OC[C@@H]1NCc1ccc(F)cc1` (as salt: oxalate) [(+)-29b, (2R,4S,5S)-2-benzhydryl-5-(4-fluoro-benzylamino)-tetrahydro-pyran-4-ol], the melting point is 223 to 225 °C.
In the case of `COc1ccc(CN[C@H]2CC[C@@H](C(c3ccccc3)c3ccccc3)OC2)cc1` (relative stereo) [Compound 16e, Cis-(6-benzhydryl-tetrahydropyran-3-yl)-(4-methoxy-benzyl)-amine], the half-maximal inhibitory concentration (IC50) came out at 84 nM on DAT [1] (read-out: IC50 at the DAT) and 59.5 ± 11.6 nM at DAT [2] (Table 2, average ± SEM). Besides, at DAT [2], the “[3H]DA uptake/DAT binding” value was 0.71.
In the case of `N[C@H]1CC[C@@H](C(c2ccccc2)c2ccccc2)OC1` (relative stereo) [Compound 15, Cis-(6-benzhydryl-tetrahydropyran-3-yl)-amine], the “activity at DAT, in words” value on DAT [1] is listed as “little or no activity at the DAT”. Also, the IC50 on DAT [1] (Table 2, average ± SEM of three to eight experiments, read-out: DAT binding, IC50, [3H]Win 35,428) is 777 ± 41 nM; at DAT [2] (Table 2, average ± SEM), 251 ± 31 nM. In addition, at DAT [2], the “[3H]DA uptake/DAT binding” value amounted to 0.32.
